The text below walks through data of US20170055533A1, “AROMATIC PHOSPHATE ESTERS AS AGROCHEMICAL FORMULATION COMPONENT” (priority 2011, published 2017).

Common to all, as to type: in vivo
The subject of series [1] is Chenopodium album (CHEAL), Abutilon theophrasti (ABUTH), Setaria viridis (SETVI) and Digitaria sanguinalis (DIGSA). The series can be described thus: Glasshouse weed kill test, nicosulfuron with and without adjuvants. Conditions: conclusion from Table 3. As for the experimental part: The efficacy of the aromatic phosphate esters tricresyl phosphate, Phosflex® 362 (2-ethylhexyl diphenyl phosphate) and triphenyl phosphate were tested in a glasshouse against four weed species using the herbicide nicosulfuron. An agrochemical composition was prepared containing 0.5% v/v of the adjuvant Atplus® 411 F in a track sprayer, and was applied at a volume of 200 litres per hectare. The other adjuvants were tested at a arte of 0.2% v/v. Nicosulfuron was applied at a rate of either 30 or 60 grams of pesticide per hectare to weeds which had been grown to the 1.3 or 1.4 leaf stage. The weed species were Chenopodium album (CHEAL), Abutilon theophrasti (ABUTH), Setaria viridis (SETVI) and Digitaria sanguinalis (DIGSA).
Each spray test was replicated three times. The efficacy of the herbicide was assessed visually and expressed as a percentage of the leaf area killed. Samples were assessed at time periods of 14 and 21 days following application. The results shown in Table 3 below are mean averages over the two rates of nicosulfuron, three replicates, four weed species and the two assessment timings, and are compared to the efficacy of nicosulfuron in the absence of adjuvant and nicosulfuron in the presence of the known tank mix adjuvant Atplus® 411F.

Series [2] relates to Septoria tritici. The series can be described thus: Septoria tritici on wheat plants, cyproconazole with and without phosphate ester adjuvants. Conditions: conclusion from Table 2.
The next series deals with Tetranychus urticae. Briefly: Mortality of two spotted spider mite on French bean plants, abamectin with and without phosphate ester. Conditions: for mortality of Tetranychus urticae, phosphate ester composition without abamectin: 0.14% v/v phosphate ester, no abamectin present; for % mortality of Tetranychus urticae: phosphate ester 0.14% v/v, 10 days, larva and adults averaged, lower side of leaves. As for the experimental part: The efficacy of the aromatic phosphate ester Phosflex® 362 (2-ethylhexyl diphenyl phosphate) as an adjuvant in a composition containing abamectin was tested and compared to the efficacy of an abamectin composition without the Phosflex® 362 present, and to the efficacy of an abamectin composition containing triethyl phosphate. The Phosflex® 362 and the triethyl phosphate were present at 0.14% v/v in the abamectin compositions. The surfactants tristyrylphenol ethoxylate phosphate ester, sodium salt and tristyrylphenol ethoxylate were present in all the abamectin compositions tested.
Two week old French bean (Phaseolus vulgaris) plants were infested with a mixed population of two spotted spider mite Tetranychus urticae. One day after infestation the plants were treated with the test compositions, with a track sprayer from the top with a rate of 200 litres per hectare. Plants were incubated in the greenhouse for 10 days and the evaluation was done on mortality against Larva and Adults, just on the lower side (untreated) of the leaves. Each experiment was replicated twice and the results were averaged. The mortality against Larva and Adults was then averaged.

Series [3] has as its system Septoria tritici. Conditions: conclusion from Table 1.

“Also recorded” adds a separate entry of the source.

In the case of “tricresyl phosphate [tricresylphosphate, reference compound]”, the “efficacy as adjuvant for nicosulfuron (in words)” value in series [1] is reported as “performing particularly well”.
Regarding `CCCCC(CC)COP(=O)(Oc1ccccc1)Oc1ccccc1` (stereo not shown) [Phosflex® 362, 2-ethylhexyldiphenyl phosphate], in series [1], the “efficacy as adjuvant for nicosulfuron (in words)” value is on record as “performing particularly well”. For the same compound, in the series with Septoria tritici [2], the “efficacy as adjuvant for cyproconazole (in words)” value was “performed best as an adjuvant out of the compounds tested”. The “mortality of Tetranychus urticae, phosphate ester composition without abamectin” value in the series with Tetranychus urticae is “no mortality was observed”. The “efficacy as adjuvant for abamectin (in words)” value in the series on Tetranychus urticae (conclusion from Table 7) was “more effective control of Tetranychus urticae than the treatment containing abamectin with no adjuvant present; also recorded: considerably more effective than the alkyl phosphate ester triethyl phosphate”. In addition, in the series on Septoria tritici [3], the “efficacy as adjuvant for isopyrazam (in words)” value was “more efficacious as an adjuvant than any of the other compounds tested”.
Turning to abamectin, the “% mortality of Tetranychus urticae” value with Tetranychus urticae (0.8 ppm abamectin) was 0%; with Tetranychus urticae (3 ppm abamectin) it was 20%; in the series with Tetranychus urticae (12.5 ppm abamectin), 50%.
Take `CCOP(=O)(OCC)OCC` [triethyl phosphate]: the “mortality of Tetranychus urticae, phosphate ester composition without abamectin” value with Tetranychus urticae is on record as “no mortality was observed”.
